Experimental data as given in patent US6313310A, “4-and 5-alkynyloxindoles and 4-and 5-alkenyloxindoles” (Hoffmann-La Roche Inc., priority 1999, dated 2001).

Molecular target: rat SAPK (isoform β) (Rattus norvegicus, UniProt P49187)
Assay: SAPK FlashPlate Assay (inhibition of cJun phosphorylation)
Format: biochemical
Details: Table I B; for inhibition at 1 µM: Concentration <1.0 μM
Protocol: "IC50 " refers to the concentration of a particular 4- or 5-alkynyloxindole or 4- or 5-alkenyloxindole required to inhibit 50% of cJun phosphorylation, which is a measure of inhibition of SAPK activity. IC50 can be measured, inter alia, using the assay described herein in Example 102.
Human JNK is highly homologous to rat SAPK. To measure the inhibitory activity of test compounds, the compounds were tested in the rat SAPK assay.
For the SAPK assay, purified GST-cJun (a chimeric protein containing cjun, a natural substrate of JNK) was coated on 96 well FlashPlates (New England Nuclear, Boston, Mass.). Purified rat SAPK (isoform β, Kyriakis et al. supra) was preincubated with preparations containing MEKK-1 and MKK4 for 30 minutes at 37° C. in assay buffer containing 25 mM HEPES, pH 7.5, 150 mM NaCl, 20 mM MgCl2, 2 mM DTT, 0.001% Tween 20, 1 μM ATP freshly added. In the preincubation step, MEKK-1 phosphorylates and activates MKK-4, which in turn phosphorylates and activates SAPK. The activated SAPK was then added to the cJun coated FlashPlates along with ^33 P-ATP (0.32 μCi per reaction) and test compounds. The plates were incubated for 30 minutes at 37° C., then washed with PBS, 0.01% Tween 20, and counted in the Topcount scintillation counter (Packard Instrument Co., Downers Grove, Ill.). Dilutions of compounds were tested in duplicate in each assay. The percent inhibition of cJun phosphorylation (a measure of inhibition of SAPK activity) was determined by the following formula: [formula]
where "test compound" refers to the average counts per minute of the test duplicates, "nonspecific" refers to the average counts per minute when no SAPK was added, and "total" refers to the average counts per minute when no compound was added.

Chain of rat SAPK (isoform β) (P49187 whole entry, canonical isoform): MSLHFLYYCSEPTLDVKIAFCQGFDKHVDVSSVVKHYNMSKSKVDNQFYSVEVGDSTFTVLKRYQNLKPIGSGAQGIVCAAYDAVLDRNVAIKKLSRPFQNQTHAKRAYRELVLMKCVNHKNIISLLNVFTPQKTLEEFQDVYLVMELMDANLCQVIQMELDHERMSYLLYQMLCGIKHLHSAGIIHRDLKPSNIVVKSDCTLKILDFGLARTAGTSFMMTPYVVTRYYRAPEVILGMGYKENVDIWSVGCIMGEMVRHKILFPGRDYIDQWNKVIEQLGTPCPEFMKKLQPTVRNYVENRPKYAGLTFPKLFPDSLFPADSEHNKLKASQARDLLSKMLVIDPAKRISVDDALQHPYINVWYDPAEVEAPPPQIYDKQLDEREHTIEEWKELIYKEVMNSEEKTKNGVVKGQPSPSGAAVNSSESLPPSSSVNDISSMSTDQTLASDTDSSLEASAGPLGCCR

SMILES | inhibition at 1 µM | inhibition at 0.1 µM (Concentration <0.10 μM)
COc1cc[nH]c1/C=C1\C(=O)Nc2cccc(C#CC(O)c3cccn3C)c21 (racemic) [AA, rac-(Z)-1,3-Dihydro-4-[3-hydroxy-3-(1-methyl-pyrrol-2-yl)-1-propynyl]-3-[(3-methoxy-1H-pyrrol-2-yl)methylene]-2H-indol-2-one] | > 50% | 
COc1cc[nH]c1/C=C1\C(=O)Nc2ccc(NC(=O)Cc3cccs3)c(C#Cc3cccnc3)c21 [III] |  | < 50%
COc1cc(C(O)C#Cc2cccc3c2/C(=C/c2[nH]ccc2OC)C(=O)N3)ccc1O (racemic) [O, rac-(Z)-1,3-Dihydro-4-[3-hydroxy-3-(4-hydroxy-3-methoxyphenyl)-1-propynyl]-3-[(3-methoxy-1H-pyrrol-2-yl)methylene]-2H-indol-2-one] | > 50% | 
